Reference: US8470845B2, “Analgesic and methods of treating pain” (Toray Industries, Inc., priority 2004, dated 2013)

Key:
[1] = tested on: female Sprague-Dayley rats; experiment: Activity to relieve cystalgia caused by hyperextension of bladder, myoelectric activity of external oblique abdominal muscle as index; assay type: in vivo, rat; conditions: iv; for Rate of Inhibition of Myoelectric Activity (Number of Spikes) of External Oblique Abdominal Muscle (vs. before administration, %): anesthetized rats, mean ± standard error
Method: The activity of Compound 10f to relieve cystalgia was evaluated using the myoelectric activity of external oblique abdominal muscle in hyperextension of bladder of anesthetized rats as an index of the cystalgia. In the experiments, 14 to 15-week old female Sprague-Dayley rats (CLEA Japan, Inc.) weighing 300 to 360 g were used.
Under halothane (2.5-4%) anesthesia, a polyethylene catheter (PE-50) for cystometry was inserted into the bladder transurethrally. Further, a polyethylene catheter (PE-100) for filling physiological saline was inserted into the bladder from the apex of bladder dome. […] A catheter for drug administration was indwelled in the femoral vein. The skin in the lateral ventral part was incised and a bipolar electrode for electromyographic measurement was inserted into the external oblique abdominal muscle and indwelled therein. A reservoir preliminarily filled with physiological saline was connected to the catheter indwelled in the bladder and held at a prescribed height to extend the bladder. The extension stimulus was continued for 20 seconds. In cases where the stimulation is repeatedly given, the interval between stimulation was 3 minutes. A bipolar electrode (needle electrode for electroencephalography, NIHON KOHDEN) was connected to an electromyograph amplifier (EMG100C, Biopac Systems), and a high cut filter (5 kHz) and low cut filter (100 Hz) were applied. Thereafter, the signals were taken into an AD converter (MP-150WSW, Biopac Systems) and into a computer at 1 kHz, and the myoelectric activity was recorded using the special software (AcqKnowledge 3.8.1, Biopac Systems). The intravesical pressure was measured using a pressure transducer (AP641G, NIHON KOHDEN) and a general purpose amplifier (DA100C, Biopac Systems). The halothane level was adjusted such that a stable myoelectric activity was obtained by extension at a pressure of 50 cmH2O, and then the drug was intravenously administered. Thereafter, hyperextension of bladder was repeated for at least 20 minutes.
The drug was dissolved in aqueous 5% xylitol-0.02% citric acid solution, and the administration volume was 0.5 mL/kg. The mean of the number of spikes during the twice hyperextension of bladder immediately before the drug administration was defined as the value before drug administration. Taking the value before the drug administration as 100%, the change in the number of spikes after administration of the drug was normalized. The mean of the change in the number of spikes by the consecutive three times hyperextension carried out immediately before or after 15-minutes time point from the drug administration was calculated, and the drug effect was analyzed by Williams test.

male ddY mouse [2] = experiment: Analgesic activity test by mouse acetic acid writhing method; assay type: in vivo; conditions: subcutaneous, 15 minutes before i.p. 0.6% acetic acid; dosage to halve the number of writhing response
Method: To each male ddY mouse, each test compound or the vehicle was subcutaneously administered in an administration volume of 0.1 mL/10 g body weight. Fifteen minutes later, 0.1 mL/10 g body weight of aqueous 0.6% (v/v) acetic acid solution was intraperitoneally administered. From 10 minutes after the administration of the acetic acid solution, the number of writhing response (i.e., the behavior to bend the body backward and/or twist the body) during 10 minutes was counted, and the analgesic activity was evaluated based on the number of writhing response. […] 10% Aqueous dimethylsulfoxide (DMSO) was used as a vehicle for test compounds 1, 2, 3, 4, 5, 6, 7, 8, 9, 10, 11, 12, 13, 14, 15, 16, 17, 18, 19, 20, 21 and 22. 0.1% Citric acid/aqueous 5% xylitol was used as a vehicle for test compounds 10f.

male ddY mouse [3] = conditions: literature, Pain. Vol 50, 223-229 (1992); cited from earlier work

Row | Structure (SMILES) | Rate of Inhibition of Myoelectric Activity (Number of Spikes) of External Oblique Abdominal Muscle (vs. before administration, %) ([1]; 0.003 mg/kg) [%] | Rate of Inhibition of Myoelectric Activity (Number of Spikes) of External Oblique Abdominal Muscle (vs. before administration, %) ([1]; 0.01 mg/kg) [%] | Rate of Inhibition of Myoelectric Activity (Number of Spikes) of External Oblique Abdominal Muscle (vs. before administration, %) ([1]; 0.03 mg/kg) [%] | inhibition of the myoelectric activity (in words) ([1]; 0.003-0.03 mg/kg) | minimum effective dose ([1]; inhibition of myoelectric activity) [mg/kg] | ED50 (male ddY mouse [2]) [mg/kg] | effect on pain in PGF2α-induced allodynia model (in words) (male ddY mouse [3])
1 | O=C1c2ccccc2C(=O)N1[C@@H]1CC[C@@]2(O)[C@H]3Cc4ccc(O)c5c4[C@@]2(CCN3CC2CC2)[C@H]1O5 [Compound 10f, N-(17-cyclopropylmethyl-4,5α-epoxy-3,14-dihydroxy-morphinan-6β-yl)-phthalimide] | 5.9 ± 11.5 | 42.4 ± 21.1 | 64.3 ± 17.2 | dose-dependently and significantly inhibited | 0.01 | 0.037 | 
2 | CN1CC[C@]23c4c5ccc(O)c4O[C@H]2[C@@H](O)C=C[C@H]3[C@H]1C5 [morphine] |  |  |  |  |  |  | ineffective
